This is an account of results in patent publication US20250160329A1, “AGROCHEMICAL ADJUVANTS” (Croda International Pic, priority 2022, published 2025).

For the assay, the system named is Botrytis cinerea (ATCC 90479). The assay can be described thus: Botrytis cinerea hyphal growth inhibition on PDA agar (colony diameter), adjuvant with or without pyraclostrobin. Format: cell-based. The following applies: for Fold Change in Growth Inhibition: 48 h, 22° C., relative to pyraclostrobin alone. The text has this:
As a measure of the adjuvant activity in relation to the activity of the fungicide alone (e.g. pyraclostrobin) to B. cinerea a value of percent inhibition (adjuvant and fungicide) divided by percent inhibition (fungicide) can be defined, with higher values desired. A value of 1 would therefore represent equal activity of the adjuvant/fungicide combination to the fungicide alone, whereas a value above 1 would represent higher activity with the adjuvant/fungicide combination than the fungicide alone. The actives of the present invention may have a value greater than 1. Preferably greater than 1.5, most preferably greater than 2.
Percent Inhibition—The percent inhibition will be understood to represent the amount the fungicide and/or adjuvant that inhibits the visible growth of the microorganism after 48 hours incubation at 22° C. relative to vehicle treated controls. This is calculated using the following formula:
[formula] • where: • ØC=diameter of the colony grown on agar supplemented with vehicle (i.e. vehicle treated control), and • ØT=diameter of the colony grown on agar supplemented with fungicide and/or adjuvant formulated in an appropriate vehicle (i.e. solvent such as water C2H5OH, CH3OH, CH3CN, DMSO).
Fold Change—The fold change is a measure of the adjuvant/fungicide combination in inhibiting a microorganism compared to the fungicide alone. This indicates how the adjuvant performs relative to the fungicide alone. This is calculated using the following formula:
INHAF/INHF • where: • INHAF=percent inhibition of fungal growth when treated with fungicide and adjuvant, and • INHF=percent inhibition of fungal growth when treated with fungicide alone.
Botrytis cinerea (ATCC 90479) was cultured on Difco Potato Dextrose Agar (PDA) for 7 days with diurnal UV cycles (12 h UV light and 12 h dark). Spores were harvested in a buffered, sterile saline solution (w/v: 0.9% NaCl with 1% Tween 80) and counted using a haemocytometer. The spore suspension was adjusted to a final concentration of 8.5×10^6 spores/mL to create a standardised inoculum.
To prepare hyphal fragments for adjuvant testing, 8.5×10^4 spores were used to inoculate 10 mL of Difco Potato Dextrose Broth in a 150×25 mm tube. The tube was incubated at 220 RPM, 22° C. for 48 hours.
To create hyphal fragments from the culture, the culture was transferred to a 50 mL plastic conical tube containing approximately 20 sterile 5 mm diameter glass beads and vortexed for 5 min. […]
Fungicides and adjuvants were dissolved in methanol and added to molten PDA (−50° C.) and then the agar was distributed in the wells of 12 well multiwell plates (1 mL/well). […] The plates were incubated at 22° C. for 48 hours and then the colony diameter was measured using a digital caliper. […]

For the compound `O=C1N/C(=C\c2ccccc2)C(=O)N2CCCCC12` (stereo not shown) [DKP (Ia), cyclo(-dhPhe-Pip) diketopiperazine], the “Fold Change in Growth Inhibition” value is recorded as 3.18 (adjuvant 32 μg/mL + pyraclostrobin (Pyra) 0.0156 μg/mL), 1.36 (adjuvant 32 μg/mL + pyraclostrobin (Pyra) 0.0313 μg/mL) and 1.76 (adjuvant 32 μg/mL + pyraclostrobin (Pyra) 0.0625 μg/mL). Moreover, the “fungicidal activity against B. cinerea (adjuvant alone)” value (adjuvant alone at […] (so in the source), no fungicide) was “no fungicidal activity”.
